Data set [1] is described as follows: In vivo metabolism of CBN in female mice, plasma levels by targeted LC/MS/MS. On the set-up: species or system C57BL/6 mice. How it is done:
Initially dissolved in ethanol, CBN was combined with a volume of Tween 80, constituting 6% of the total solution volume for injection. Ethanol was eliminated via vacuum evaporation, and saline was added to prepare a 4 mg/mL solution. CBN (20 mg/kg) or vehicle was administered to C57BL/6 mice intravenously (IV) through the retro-orbital sinus or intraperitoneally (IP) at the lower right quadrant of the abdomen. Animals were euthanized at 30- or 120 min postinjection. Blood samples, collected via cardiac puncture into heparin tubes, underwent cold centrifugation at 4500 rpm for 15 min to isolate plasma. Plasma and whole liver samples were flash-frozen at −80 °C for subsequent analysis. Our decision to use female mice for this experiment was based on the availability of age-matched mice in the colony at the time of the experiment.
Mice were anaesthetized with a 3% inhalant dose of isoflurane until their respiratory rate decreased to 50% of baseline (i.e., 40–60 breaths/min) and the righting reflex was abolished. Mice were subsequently removed from the induction chamber and laid on their side. Using the index finger and thumb of the nondominant hand, the skin above and below the eye was retracted until a slight protrusion from the socket was noted. A 29G1/2 needle was inserted, bevel down, into the medial canthus at an approximate 45-degree angle until slight resistance was noted. Volume was slowly infused at a rate of 15uL/second. The needle was subsequently removed from the eye socket, and ophthalmic ointment was added.
Animals were gently restrained by scruff, and the injection site at the lower right quadrant of the abdomen was identified. The needle was inserted at a 60-degree angle to the body, and the plunger was lightly withdrawn to ensure the needle was not in contact with viscera or organs before dispensing volume.
200 μL plasma samples were collected and used for extraction using 1 mL of Hexane: Ethyl acetate (8:2 v/v) following a similar protocol described above.
Samples were analyzed using the Sciex QTrap 6500+ system (Framingham, MA) with Waters Acquity I- class plus UPLC. Software Analyst 1.7.1 was used for data acquisition.
The LC separation was performed on a Waters Acquity UPLC BEH column (2.1 × 100 mm, 1.7 μm) with mobile phase A (0.1% formic acid in water) and mobile phase B (0.1% formic acid in acetonitrile). The flow rate was 0.5 mL/min unless noted otherwise. The linear gradient was as follows: 0–0.5 min, 70%A; 2 min, 20%A; 4–4.2 min, 0%A; 4.21–5.2 min, 0%A (0.8 mL/min); 5.3–6.9 min, 70%A. The autosampler was set at 10 °C, and the column was kept at 50 °C. The injection volume was 5 μL.
Mass spectra were acquired under positive electrospray ionization (ESI) with the ion spray voltage of 4500 V. The source temperature was 500 °C. The curtain gas, ion source gas 1, and ion source gas 2 were 32, 50, and 70 psi, respectively. Multiple reaction monitoring (MRM) was used for quantitation with the MRM transition of CBN (m/z 311.2 → m/z 269.1), CBN-1′–OH (m/z 327.2 → m/z 253.1), CBN-11-OH (m/z 327.2 → m/z 128.1), CBN-p-quinone (m/z 325.2 → m/z 283.1) and EPEA-d4 as internal standard (m/z 350.3 → m/z 66.1).

The next data set concerns the target T1, CYP2D6 (Homo sapiens, UniProt P10635).
T1 construct: polyhistidine (inferred from Ni-NTA purification and histidine elution); made in house; host or cells: E. coli (inferred from the pCWori vector and lysozyme/spheroplast preparation)
The experiment in a line: CYP2D6 (nanodisc)-mediated CBN metabolism, kinetics of metabolite formation. The data set is classed as in vitro ADME. How it is done:
We carried out concentration-dependent metabolism of CBN in the presence of 2 CYPs: 2C9 and 2D6. For the experiment, we used an enzyme concentration of 0.5 μM, reconstituted in the lipid system of POPC: POPS (8:2 v/v), and CPR at 0.6 μM dissolved in 0.1 M potassium phosphate buffer for CYP2C9. The substrate CBN was used in a range of 5–80 μM. The reaction mixture was incubated at 37 °C for 10 min, and then NADPH was added (1 mM), allowing the reaction to proceed for an additional 30 min. We quenched the reactions using a mixture of Hexane: Ethyl Acetate (8:2 v/v) and used the same composition to extract the CBN metabolites. We did a total extraction for three cycles. […]
Samples were analyzed with the Sciex QTrap 6500+ system (Framingham, MA) with Waters Acquity I-class plus UPLC. […]
(§1) Mass spectra were acquired under positive electrospray ionization (ESI) with the ion spray voltage of 4500 V. The source temperature was 500 °C. […] Multiple reaction monitoring (MRM) was used for quantitation, as described in transitions CBN (m/z 311.2 → m/z 205.1), CBN-1′–OH (m/z 327.2 → m/z 253.1), CBN-11-OH (m/z 327.2 → m/z 291.1), CBN-p-quinone (m/z 325.2 → m/z 283.1) and CBC-d9 as internal standard (m/z 324.2→ m/z 202.1).
(§2) All data were analyzed using the software Skyline (daily version 22.2.1.278). […]

The test system of another data set is IL-6. In words: IL-6 ELISA in LPS-stimulated BV2 microglial cells. The data set is classed as cell-based. How it is done:
(§3) The BV2 microglial cells were subjected to the treatment of LPS both in the absence and presence of CBN and its selected metabolites. The seeding density for this assay was 1 × 10^5 cells/well. The cells were initially treated with the molecules for 4 h before being stimulated with LPS (25 ng/mL). The NO assay was performed 24 h after the treatment with LPS. The NO assay was performed according to the manufacturer’s protocol, and NO levels were quantified using nitrate standard curves. For the assay, 50 μL of cell media was used in a 96-well plate, and the absorbance was recorded at 540 nm. All measurements were performed in n = 5.
(§4) ELISA assays of IL-6, IL-10 (Item No. 88–7105), and Arginase 1 were performed using the same supernatant with which we had completed the NO and LDH assays. The culture media was collected, and the IL-6 (Thermo Scientific) and Arginase 1 (abcam) assays were performed using the specific monoclonal antibodies as per the manufacturer’s instructions.
A general note: ELISA stands for enzyme-linked immunosorbent assay.

The subject of a further data set is IL-10. In words: IL-10 ELISA in LPS-stimulated BV2 microglial cells. The following applies: LPS-stimulated BV2, 1–5 μM. The data set is classed as cell-based. How it is done: as §3, §4
In another data set the test system is Arginase 1. In words: Arginase 1 ELISA in LPS-stimulated BV2 microglial cells. The data set is classed as cell-based. How it is done:
as §3, §4

Data set [2] addresses T2, CB1 receptor (Homo sapiens, UniProt P21554). In words: G protein nanoBRET assay, agonist mode, CB1 receptor. The note with it: 10 μM, ΔBRET; confirmed by concentration–response, only at high concentrations. (BRET reads energy transfer from a luciferase to a nearby fluorophore.)
Another data set concerns the target CB2 receptor (Homo sapiens, UniProt P34972). The experiment in a line: G protein nanoBRET assay, antagonist mode, CB2 receptor. The note with it: 50 μM after pretreatment with 1 μM CP-55940.
The test system of another data set is NO. The experiment in a line: NO levels in LPS-stimulated BV2 microglial cells. Type of data set: cell-based. The note with it: for change in NO levels compared to cells with only LPS treatment: LPS-stimulated BV2, 1, 2.5 and 5 μM. How it is done: as §3
A further data set has as its system human liver microsomes. In words: CBN metabolism by human liver microsomes, metabolite formation rate. Type of data set: in vitro ADME. The note with it: HLM, across different CBN concentrations. How it is done: We carried out concentration-dependent metabolism of CBN in the presence of 2 CYPs: 2C9 and 2D6. For the experiment, we used an enzyme concentration of 0.5 μM, reconstituted in the lipid system of POPC: POPS (8:2 v/v), and CPR at 0.6 μM dissolved in 0.1 M potassium phosphate buffer for CYP2C9. The substrate CBN was used in a range of 5–80 μM. The reaction mixture was incubated at 37 °C for 10 min, and then NADPH was added (1 mM), allowing the reaction to proceed for an additional 30 min. We quenched the reactions using a mixture of Hexane: Ethyl Acetate (8:2 v/v) and used the same composition to extract the CBN metabolites. We did a total extraction for three cycles. Following the extractions, the extractions were dried under a continuous stream of nitrogen, and the residual products were finally dissolved in 90% ethanol. We used CYP2D6 in a nanodisc for the metabolism of CBN. […] We carried out the same protocol for the metabolism of CBN using 1 μg of human liver microsome, CPR (0.6 μM) and NADPH (1 mM).
Samples were analyzed with the Sciex QTrap 6500+ system (Framingham, MA) with Waters Acquity I-class plus UPLC. Software Analyst 1.7.1 was used for data acquisition.
The LC separation was performed on a Waters Acquity UPLC BEH column (2.1 × 100 mm, […]) with mobile phase A (0.1% formic acid in water) and mobile phase B (0.1% formic acid in acetonitrile). The flow rate was 0.5 mL/min unless noted otherwise. […]
as §1, §2
On the technique in general: Microsomes from liver hold many membrane-bound enzymes, among them those of drug oxidation.

The test system of a further data set is TRPV4. Also on record: method as in ref 11 (De Petrocellis et al., citation mark lost in text). The note with it: ref 11 (De Petrocellis et al.); cited from earlier work.
Another data set deals with DRG neurons. In words: Calcium responses of cultured DRG sensory neurons. Type of data set: cell-based. The following applies: cultured mouse DRG neurons, 50 μM × 15 s. How it is done: 9 CBN and 11-OH CBN activate DRG neurons with similar response magnitudes but differ in their percentage of neurons activated and time to peak response. Calcium response traces of representative cultured mouse DRG neurons following application of CBN (A) and 11-OH CBN (B) 50 μM × 15 s (arrow). […] Mean value ± SEM (CBN: n = 59; 11-OH CBN: n = 29, two-tailed t test, Prism GraphPad).

The next data set deals with CB1 receptors. On the set-up: method as in ref 10 (Rhee et al., citation mark lost in text). The following applies: COS-7 cell lines; ref 10 (Rhee et al.); cited from earlier work.
In data set [3] the target is T2, CB1 receptor. In words: G protein nanoBRET assay, antagonist mode, CB1 receptor. The following applies: 50 μM after pretreatment with 1 μM CP-55940.
Data set [4] deals with T3, CYP3A4 (Homo sapiens, UniProt P08684, S18F). In words: CYP3A4-mediated CBN metabolism. Type of data set: in vitro ADME. The following applies: targeted and untargeted metabolomics. On the set-up: polyhistidine (C); made in house; host or cells: E. coli DH5alpha.
Data set [5] addresses T3, CYP3A4. The experiment in a line: NADPH oxidation assay with CYP3A4 nanodisc and CPR. The following applies: triplicate.
The test system of a further data set is TRP channel. On the set-up: method as in ref 11 (De Petrocellis et al., citation mark lost in text). The note with it: stimulation by 1 mM carvacrol; ref 11 (De Petrocellis et al.); read-out: IC50, prevention of intracellular calcium increase upon carvacrol; cited from earlier work.
A further data set deals with CB2 receptors. On the set-up: method as in ref 10 (Rhee et al., citation mark lost in text). The note with it: COS-7 cell lines; ref 10 (Rhee et al.); cited from earlier work.

T2 sequence (P21554 whole entry): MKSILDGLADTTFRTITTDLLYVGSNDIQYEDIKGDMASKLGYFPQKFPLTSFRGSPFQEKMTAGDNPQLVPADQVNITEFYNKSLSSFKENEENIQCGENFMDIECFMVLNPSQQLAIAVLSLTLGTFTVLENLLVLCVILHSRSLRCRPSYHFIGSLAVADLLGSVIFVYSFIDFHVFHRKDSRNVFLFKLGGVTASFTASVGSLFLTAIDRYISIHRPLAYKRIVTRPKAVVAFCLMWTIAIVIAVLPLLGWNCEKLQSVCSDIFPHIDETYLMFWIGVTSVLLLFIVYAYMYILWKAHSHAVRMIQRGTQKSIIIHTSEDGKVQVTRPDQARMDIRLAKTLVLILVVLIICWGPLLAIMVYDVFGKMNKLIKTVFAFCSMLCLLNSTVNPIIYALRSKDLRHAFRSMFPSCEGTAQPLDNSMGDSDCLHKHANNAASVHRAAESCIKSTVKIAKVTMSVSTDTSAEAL
T3 sequence (P08684 with tags, fused parts or gaps S18F limits assumed): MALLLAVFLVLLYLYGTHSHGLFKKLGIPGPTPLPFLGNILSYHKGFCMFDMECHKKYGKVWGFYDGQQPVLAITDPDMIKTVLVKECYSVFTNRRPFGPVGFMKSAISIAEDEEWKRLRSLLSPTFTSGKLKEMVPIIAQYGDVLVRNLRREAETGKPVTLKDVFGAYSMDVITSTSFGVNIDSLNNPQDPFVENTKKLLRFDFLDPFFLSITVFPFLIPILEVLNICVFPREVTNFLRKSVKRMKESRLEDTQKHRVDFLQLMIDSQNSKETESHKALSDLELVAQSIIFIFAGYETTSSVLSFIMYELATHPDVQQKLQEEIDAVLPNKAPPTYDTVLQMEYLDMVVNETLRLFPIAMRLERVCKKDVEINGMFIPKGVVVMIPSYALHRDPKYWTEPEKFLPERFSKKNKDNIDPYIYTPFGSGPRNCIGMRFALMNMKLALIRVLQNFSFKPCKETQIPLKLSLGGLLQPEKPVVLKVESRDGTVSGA
Chain of CB2 receptor (P34972 whole entry): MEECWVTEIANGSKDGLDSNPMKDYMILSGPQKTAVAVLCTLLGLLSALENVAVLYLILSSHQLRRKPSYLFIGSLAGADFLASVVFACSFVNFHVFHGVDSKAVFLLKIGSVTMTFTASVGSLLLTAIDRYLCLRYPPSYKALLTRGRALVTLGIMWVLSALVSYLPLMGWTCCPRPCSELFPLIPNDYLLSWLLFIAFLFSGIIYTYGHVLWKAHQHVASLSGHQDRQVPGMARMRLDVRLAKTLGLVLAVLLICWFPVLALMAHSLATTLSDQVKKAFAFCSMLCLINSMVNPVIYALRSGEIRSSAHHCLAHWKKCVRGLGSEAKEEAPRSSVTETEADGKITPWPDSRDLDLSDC
T1 sequence (P10635 with tags, fused parts or gaps limits assumed): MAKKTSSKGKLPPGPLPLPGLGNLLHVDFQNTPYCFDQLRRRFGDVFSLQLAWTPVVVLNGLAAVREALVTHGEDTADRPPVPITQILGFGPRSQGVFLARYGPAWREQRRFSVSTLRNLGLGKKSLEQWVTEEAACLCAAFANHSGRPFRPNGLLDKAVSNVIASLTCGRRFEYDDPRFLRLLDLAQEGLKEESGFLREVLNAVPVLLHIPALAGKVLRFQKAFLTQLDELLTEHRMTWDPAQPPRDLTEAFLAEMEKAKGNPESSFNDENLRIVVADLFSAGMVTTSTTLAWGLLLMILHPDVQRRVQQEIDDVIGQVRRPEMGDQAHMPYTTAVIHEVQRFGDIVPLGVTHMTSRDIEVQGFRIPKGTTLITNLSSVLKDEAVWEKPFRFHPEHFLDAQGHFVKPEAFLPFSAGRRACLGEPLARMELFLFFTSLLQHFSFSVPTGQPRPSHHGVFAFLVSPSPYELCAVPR

For `CCCC[C@H](O)c1cc(O)c2c(c1)OC(C)(C)c1ccc(C)cc1-2` [CBN-1′–OH, 3-(1-hydroxypentyl)-6,6,9-trimethyl-6H-benzo[c]chromen-1-ol], the “reduction of plasma level between 0.5 and 2 h” value (shortened to “reduction”) in data set [1] (IV administration of CBN) is recorded as 3 fold. Further, the “formation of metabolite by CYP2D6” value at CYP2D6 is recorded as “did not detect the formation”. Moreover, the IL-6 production entry in the data set on IL-6 (LPS-stimulated BV2, concentration not stated) is listed as “decrease in IL-6 production”. In the data set on IL-10, the IL-10 levels result is “reversed”. In the data set on Arginase 1, the Arginase1 levels result is listed as “slight increase in Arginase1 levels”. Besides, on CB1 receptor [2], the “agonist effect at CB1 receptor, Gαo activation” value is listed as “partial agonist effect”. In addition, at CB2 receptor, the “inhibition of CB2 receptor” value is listed as “inverse agonist effect”. The “change in NO levels compared to cells with only LPS treatment” value with NO is “no detectable significant (ns) change”. Besides, the “rate of metabolite formation from CBN” value with human liver microsomes is given as 9–9.4 × 10^3 pmol/min/nmol.
As a reminder, the Ki is the equilibrium dissociation constant of an inhibitor or competing ligand from its target. The IC50 is the point on the concentration scale where inhibition reaches its midpoint. Regarding `CCCCCc1cc(O)c2c(c1)OC(C)(C)c1ccc(C)cc1-2` [CBN, Cannabinol], the “efficacy in activating TRPV4 compared to ionomycin” value in the data set with TRPV4 was 15.3–26.1%. Also, the “reduction” value in data set [1] (IP administration of CBN) was determined as 3 fold. In addition, in [1] (IV administration of CBN), the “reduction” value is given as roughly 3 fold. Also, the “amount of CBN available in plasma, intravenous relative to intraperitoneal” value in [1] (female mice, CBN 20 mg/kg, plasma) is recorded as 3.0 times. Besides, the IL-6 levels entry with IL-6 (LPS-stimulated BV2, 5 μM) is on record as “reduction in IL-6 levels”. In addition, in the data set with DRG neurons, the “Ca2+ response (%)” value is listed as 38.9 ± 4.3%, the “DRG neuron activation (%)” value came out at 29.3 ± 4.9%, the “Response Time” value worked out at 40.7 ± 4.8 s and the “percentage of DRG neurons activated” value is given as 29.3 ± 4.9%. Moreover, in the data set on DRG neurons, the “time to peak response” value turned out to be 40.7 ± 4.8 s. For the same molecule, the IL-10 levels result in the data set on IL-10 is on record as “concentration-dependent increase in IL-10 levels”. Further, the Arginase1 levels result with Arginase 1 is on record as “slight increase in Arginase1 levels”. Further, on CB1 receptors, the Ki was 211 ± 35 nM. Further, the “inhibition of CB1 activation” value on CB1 receptor [3] is listed as “significant but partial inhibition”. Further, the “metabolism of CBN by CYP3A4” value on CYP3A4 [4] was “did not metabolize”. The “inhibition of CB2 receptor” value on CB2 receptor is recorded as “partial inhibition”. Further, in the data set on NO (LPS-stimulated BV2, 5 μM), the “production of NO” value is “slightly lower production of NO”. Also, the “change in NO levels compared to cells with only LPS treatment” value in the data set with NO is “no detectable significant (ns) change”. Also, on CYP3A4 [5], the “rate of NADPH oxidation in the presence of the compound” value amounted to 249.731±14625 nmol/min/nmol. The IC50 with TRP channel was 9400 ± 100 nM. The Ki at CB2 receptors was 126 ± 26 nM.

(Values after paper PMC12257535, “Distinct Interactions of Cannabinol and Its Cytochrome P450-Generated Metabolites with Receptors and Sensory Neurons” (Journal of Medicinal Chemistry, 2025).)
